From ChEMBL document CHEMBL1201862, “PubChem BioAssay data set” (2004) come the findings set out here.

The nature of assay [1]: HepG2 cell cytotoxicity, dose response, cytotoxicity control, plate reader, cherry-pick, antagonist series (AID 743416). It counts as functional, cell-based.
Assay [2] is described as follows: A549 cell cytotoxicity, dose response, cytotoxicity control, plate reader, cherry-pick, antagonist series (AID 743412). Type of assay: functional, cell-based.
Assay [3] can be described thus: HEK293 cell cytotoxicity, dose response, cytotoxicity control, plate reader, cherry-picked samples (AID 743446). Type of assay: functional, cell-based.
Assay [4] has as its target Induced myeloid leukemia cell differentiation protein Mcl-1 (Homo sapiens, UniProt Q07820). Type of assay: functional.
The nature of assay [5]: LGR2 antagonists, dose response, cell-based, HEK293, CRE-luciferase reporter, cherry pick, set 2 (AID 743343).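 Also: transfected cells were stimulated with diluted bursicon conditioned medium after compound addition.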 Type of assay: functional.
The nature of assay [6]: cells. It counts as functional.
Another assay addresses Kallikrein-7 (Homo sapiens, UniProt P49862). In words: Fluorescence Intensity-based biochemical primary high throughput dose response assay to identify activators of kallikrein-7 (K7) zymogen.
The target of assay [7] is NAD-dependent protein deacylase sirtuin-5, mitochondrial (Homo sapiens, UniProt Q9NXA8). Kind of assay: SIRT5 desuccinylase inhibitors, dose response, biochemical, fluorescence imaging, cherry-pick, set 5 (AID 720591).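 Also: desuccinylation of succinyl peptide AMC substrate read as fluorescence after trypsin release; potency of inhibitors that lower fluorescence and may act on trypsin instead.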
Assay [8] has as its target T1, Long-chain-fatty-acid--AMP ligase FadD28 (Mycobacterium tuberculosis, UniProt P9WQ59).
T1 sequence (P9WQ59 whole entry): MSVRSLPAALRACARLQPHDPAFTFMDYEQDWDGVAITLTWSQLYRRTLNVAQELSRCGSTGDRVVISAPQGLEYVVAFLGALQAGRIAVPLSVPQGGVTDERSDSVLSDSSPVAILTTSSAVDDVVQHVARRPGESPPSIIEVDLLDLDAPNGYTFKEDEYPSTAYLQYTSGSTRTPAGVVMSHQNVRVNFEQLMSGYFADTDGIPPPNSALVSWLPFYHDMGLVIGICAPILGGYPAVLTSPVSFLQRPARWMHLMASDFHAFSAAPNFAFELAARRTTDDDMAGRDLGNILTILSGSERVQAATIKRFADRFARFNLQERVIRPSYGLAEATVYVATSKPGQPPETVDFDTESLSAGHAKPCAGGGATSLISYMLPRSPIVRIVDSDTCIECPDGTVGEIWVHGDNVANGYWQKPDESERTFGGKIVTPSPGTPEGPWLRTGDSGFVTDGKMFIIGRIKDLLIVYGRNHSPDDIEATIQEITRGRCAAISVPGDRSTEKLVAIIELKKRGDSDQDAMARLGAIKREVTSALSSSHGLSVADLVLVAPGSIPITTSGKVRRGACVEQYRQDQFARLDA
In words: Fluorescence polarization aasay to screen for inhibitors that compete for the binding of FadD28 to a bisubstrate Measured in Biochemical System Using Plate Reader - 2147-01_Inhibitor_Dose_CherryPick_Activity. Type of assay: functional, Mycobacterium tuberculosis H37Rv. A general note: Fluorescence polarisation rises when a labelled molecule tumbles more slowly, as on binding a larger partner.

The target of the next assay is Major prion protein (Homo sapiens, UniProt P04156). Type of assay: functional, cell-based.
The nature of assay [9]: cells.
Assay [10] addresses T2, Carboxy-terminal domain RNA polymerase II polypeptide A small phosphatase 1 (Homo sapiens, UniProt Q9GZU7).
T2 sequence (Q9GZU7 whole entry): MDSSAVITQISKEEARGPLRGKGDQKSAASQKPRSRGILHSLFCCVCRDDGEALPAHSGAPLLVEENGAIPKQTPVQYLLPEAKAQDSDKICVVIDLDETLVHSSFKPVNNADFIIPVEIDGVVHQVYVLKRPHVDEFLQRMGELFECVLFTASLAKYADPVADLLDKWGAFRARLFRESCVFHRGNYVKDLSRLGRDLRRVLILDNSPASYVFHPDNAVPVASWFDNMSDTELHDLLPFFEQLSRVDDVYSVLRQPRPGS
In words: inhibitors of CTDSP1, concentration-response testing, biochemical assay, absorbance-based, actives from ultra-high-throughput screening (AID 540297). Type of assay: functional.

For assay [11], the target named is Eukaryotic translation initiation factor 4E (Mus musculus, UniProt P63073). Kind of assay: eIF4E–eIF4G protein interaction inhibitors, dose response, biochemical, TR-FRET (AID 855).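 Also: potency for disrupting eIF4E binding to eIF4GI seen as loss of FRET.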 It counts as functional. (In general: Time-resolved FRET reads energy transfer from a long-lived donor to a nearby acceptor.)
The target of assay [12] is T3, Histone-lysine N-methyltransferase NSD2 (Homo sapiens, UniProt O96028).
T3 sequence (O96028 whole entry): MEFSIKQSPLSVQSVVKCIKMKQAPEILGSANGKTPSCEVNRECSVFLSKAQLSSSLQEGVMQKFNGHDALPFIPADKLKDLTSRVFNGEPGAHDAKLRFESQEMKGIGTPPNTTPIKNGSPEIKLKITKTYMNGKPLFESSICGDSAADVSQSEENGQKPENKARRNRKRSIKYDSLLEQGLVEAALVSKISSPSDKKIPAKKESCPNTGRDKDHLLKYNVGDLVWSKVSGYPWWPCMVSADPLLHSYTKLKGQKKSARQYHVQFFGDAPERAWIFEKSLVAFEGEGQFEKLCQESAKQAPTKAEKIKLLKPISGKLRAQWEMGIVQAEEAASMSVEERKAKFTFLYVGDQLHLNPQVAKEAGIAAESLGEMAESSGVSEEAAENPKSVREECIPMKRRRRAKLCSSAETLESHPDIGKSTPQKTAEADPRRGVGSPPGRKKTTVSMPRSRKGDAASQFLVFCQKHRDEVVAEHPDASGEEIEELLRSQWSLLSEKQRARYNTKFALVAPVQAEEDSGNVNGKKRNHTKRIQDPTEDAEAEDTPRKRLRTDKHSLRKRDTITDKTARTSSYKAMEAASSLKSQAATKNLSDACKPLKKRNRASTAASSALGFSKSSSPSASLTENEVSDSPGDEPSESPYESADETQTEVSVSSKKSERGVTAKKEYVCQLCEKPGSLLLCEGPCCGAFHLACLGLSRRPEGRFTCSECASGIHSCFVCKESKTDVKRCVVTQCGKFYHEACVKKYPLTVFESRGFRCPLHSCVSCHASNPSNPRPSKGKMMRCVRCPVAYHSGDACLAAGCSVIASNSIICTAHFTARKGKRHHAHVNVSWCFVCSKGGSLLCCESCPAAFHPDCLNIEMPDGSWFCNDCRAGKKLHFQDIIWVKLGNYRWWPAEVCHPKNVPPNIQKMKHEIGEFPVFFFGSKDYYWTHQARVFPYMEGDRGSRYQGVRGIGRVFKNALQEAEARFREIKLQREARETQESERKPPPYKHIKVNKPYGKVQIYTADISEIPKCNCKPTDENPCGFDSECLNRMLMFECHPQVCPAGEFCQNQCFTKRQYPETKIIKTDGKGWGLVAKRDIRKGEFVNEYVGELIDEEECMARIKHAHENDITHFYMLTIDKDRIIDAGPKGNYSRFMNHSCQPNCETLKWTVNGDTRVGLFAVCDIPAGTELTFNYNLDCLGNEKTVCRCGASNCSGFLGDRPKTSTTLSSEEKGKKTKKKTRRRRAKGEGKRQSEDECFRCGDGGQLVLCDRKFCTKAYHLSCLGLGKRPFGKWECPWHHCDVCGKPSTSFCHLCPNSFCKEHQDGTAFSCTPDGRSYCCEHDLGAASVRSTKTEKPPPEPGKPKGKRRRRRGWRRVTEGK
It counts as biochemical.

Assay [13] can be described thus: inhibitors of intracellular T. cruzi replication, confirmation, NIH3T3 host cells, beta-gal luminescence (AID 2044).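 Also: intracellular parasites grown in NIH/3T3 mouse fibroblasts as host cells; luminescent beta-galactosidase reporter signal from transgenic T. cruzi replicating inside host cells; inhibitors lower the luminescence signal.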 It counts as functional, cell-based.
Assay [14] is described as follows: cytotoxicity toward NIH3T3 fibroblasts, dose response, counter-screen, cell-based, ATP luminescence, mouse fibroblasts (AID 2010).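 Also: cells exposed to compound for about 90 hours before reading.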 It counts as functional. On the technique in general: Counterscreens check selectivity or assay interference.
Assay [15] is described as follows: inhibitors of HIV Env-driven cell fusion, dose response, cherry-pick (AID 652057). It counts as functional, cell-based.
Assay [16] can be described thus: CEM21 lymphoblast cell cytotoxicity, dose response, cytotoxicity control for viral fusion inhibitor project, CellTiter-Glo luminescence, cherry-picked (AID 652042).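 Also: potency for signal decrease meaning cytotoxicity.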 Type of assay: functional, cell-based.
Assay [17] in a line: inhibitors of clade B AD8 Env fusion, dose response, cell-based, cherry-pick (AID 652062).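 Also: luciferase signal from cell-cell fusion driven by HIV-1 clade B AD8 Env; potency is for inhibitors of fusion seen as a drop in luminescence.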 It counts as functional.
A short description of assay [18]: off-target signal loss in HeLa-CEM21 co-culture – HeLa F-luc CTL cells, cherry-picked, counter-screen for HIV-1 Env fusion inhibitor project, dose response (AID 652040).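 Also: potency for signal decrease marking cytotoxic or nonspecific inhibition.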 It counts as functional, cell-based.
Assay [19] in a line: ZM109 Env clade C HIV-1 fusion inhibitors, dose response, HeLa effector, CEM target cells, luciferase, cherry-pick (AID 652058). Type of assay: functional, cell-based.
A further assay deals with Vero. Kind of assay: cells. It counts as functional. The note with it: Chlorocebus sabaeus.
The nature of assay [20]: MC4R antagonists, dose response, counter-screen for LGR2 antagonist project, cell-based, plate reader, cherry pick (AID 743444).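 Also: transfected HEK 293 cells stimulated with alpha-MSH peptide; potency of inhibitors of the alpha-MSH evoked signal.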 Type of assay: functional.
Assay [21] in a line: ADAM10 inhibitors, peptide cleavage, dose response, biochemical, QFRET (AID 743254).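 Also: ADAM10 enzyme with the DM2 quenched FRET peptide as substrate; EDANS fluorescence gain as the protease cuts the substrate; inhibitor potency against ADAM10 proteolytic activity.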
In assay [22] the target is Disintegrin and metalloproteinase domain-containing protein 17 (Homo sapiens, UniProt P78536). In words: ADAM17 protease inhibitors, dose response, counter-screen for ADAM10 exosite inhibitor project, biochemical, quenched FRET substrate (AID 743253).
Assay [23] deals with T4, Sentrin-specific protease 8 (Homo sapiens, UniProt Q96LD8).
T4 sequence (Q96LD8 whole entry): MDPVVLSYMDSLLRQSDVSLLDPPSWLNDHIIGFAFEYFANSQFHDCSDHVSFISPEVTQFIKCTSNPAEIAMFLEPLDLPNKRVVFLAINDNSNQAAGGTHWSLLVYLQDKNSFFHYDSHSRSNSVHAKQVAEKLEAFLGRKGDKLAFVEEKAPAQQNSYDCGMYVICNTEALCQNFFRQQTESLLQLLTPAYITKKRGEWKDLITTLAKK
Type of assay: functional.

In assay [24] the target is T4, Sentrin-specific protease 8. It counts as functional. This is another data set of the same source.

Activity calls are given as the source filed them.

Consider `COc1cc(/C=N/Nc2nc(C)nc3c2cnn3-c2ccccc2)ccc1O`, for which the AC50 in assay [1] was 27.1 µM (active); in assay [2], 8.71 µM (active); in assay [3] it was > 52 µM (inactive); in assay [5], 23.1 µM (active). In addition, the IC50 in assay [4] was 9.67 µM (active).

With `COC(=O)C(C)Oc1ccc2cc(-c3ccccc3)c(=O)oc2c1` (stereo not given), the 50% inhibitory concentration (IC50) in “cells [6]” was 6.14 µM (active). In addition, the EC50 on Kallikrein-7 is 5.16 µM (active).

With `Cc1oc2c(C)c3oc(=O)c(CCC(=O)NCCCCCC(=O)O)c(C)c3cc2c1C`, the EC50 at Kallikrein-7 was > 69.5 µM (inactive).

For the molecule `CCCCC[C@H](C)N1C[C@@H](COCc2ccccc2)Oc2cc(N3CCC[C@H]3CO)ccc2S1(=O)=O`, the AC50 in [7] was > 30 µM (inactive).

On to `Cc1ccc(C(=O)OCC(=O)Nc2ccc3c(c2)OCO3)cc1S(=O)(=O)N1CCOCC1`, for which the AC50 in [8] was > 100 µM (inactive).

Regarding `Cc1c(C(=O)c2ccccc2C(=O)O)sc2ccccc12`, the IC50 at Major prion protein was 8.21 µM (active); in “cells [9]”, > 138 µM (inactive).

On to `O=C(O)CCNc1nc(C(F)(F)F)nc2ccccc12`, for which the AC50 in [7] was 1.64 µM (active).

On to `CCCCCCCCN1C(=O)[C@H](CC(=O)NCC2CCCCC2)C[C@@]2(C(=O)OCC)CCC=C12`, for which the AC50 in [7] was 27.7 µM (active).

In the case of `Cc1ccc(NC(=O)CN2C(=O)N/C(=C/c3cc(C)n(-c4cccc(C(=O)O)c4)c3C)C2=O)cc1`, the IC50 in assay [10] was 7.94 µM (active); in [11] it was 50 µM (inactive). Moreover, the concentration at half-maximal activity (AC50) was 27.5 µM (active) in assay [8] and > 20 µM (inactive) in assay [12].

Turning to `CCOC(=O)c1c(C)n(C)c2ccc(OCC(O)CNCCc3ccccc3)cc12` (stereo not given), the results for the AC50 in assay [1], in assay [2] and in [3] were 21.9 µM (active), 37.7 µM (active) and > 52 µM (inactive), respectively. In addition, the EC50 in assay [13] was 0.601 µM (active); in [14] it was 4.89 µM (active).

On to `Cc1nc(SCCC(=O)O)c2ccccc2n1`, for which the IC50 on Major prion protein was 0.915 µM (active); in “cells [9]” it was > 138 µM (inactive).

With `CN(C(=O)CSc1cc(C(=O)c2nccn2C)c2ccccc2n1)c1ccccc1`, the IC50 was 11.4 µM (inactive) at Major prion protein and > 138 µM (inactive) in the assay “cells [9]”.

Turning to `CC(=O)c1cc2c(cc1NS(=O)(=O)c1ccccc1Br)OCO2`, the EC50 at Kallikrein-7 was 66.2 µM (inactive).

For `C[C@H]1CN([C@@H](C)CO)S(=O)(=O)c2ccc(-c3ccc(F)cc3)cc2O[C@H]1CN(C)Cc1cccc(F)c1`, the values for the AC50 in assay [15] and in [16] were 12.4 µM (active) and 19.9 µM (active), respectively.

Consider `COc1cc2oc(=O)cc(-c3ccc(-c4ccc(CO)cc4)cc3)c2c(OC)c1OC`, for which the half-maximal activity concentration (AC50) in assay [15] was 12.1 µM (active); in assay [17], 13.2 µM (active); in assay [18] it was 8.61 µM (active); in assay [19], 5.08 µM (active).

`CCCCN(CCCNC(=O)c1ccc2c(c1)NC(=O)CN2C)c1ccccc1`: the AC50 in [3] is 16.7 µM (active); in assay [5], 21.6 µM (active); in [20] it was 23.9 µM (active). For the same molecule, the CC50 with Vero is > 25 µM (active).

Turning to `CCN(CC)C(=O)c1ncn2c1C(=O)NC[C@@H]2C`, the figures for the AC50 in assay [15], in assay [18] and in [19] were 8.99 µM (active), 24.7 µM (active) and 9.08 µM (active), respectively.

For the molecule `COc1ccc(OC(F)(F)F)cc1CC1(C)C(=O)Nc2ccc(-c3ccsc3)cc21` (stereo not given), the IC50 was 8.48 µM (active) in assay [21] and > 69.5 µM (inactive) in assay [22].

As to `CC(C)N1C(=O)CCC1C(=O)N1CCCc2ccccc21` (stereo not given), the IC50 in [23] was 9.12 µM (active); in [24], > 100 µM (inactive).

The AC50 is the midpoint of the concentration-response curve, whichever way the signal moves. By IC50 is commonly meant the midpoint of a concentration-inhibition curve. What is called EC50 is the concentration giving half of the maximal effect. What is called CC50 is the concentration giving 50% cytotoxicity.
